Measurements: ChEMBL document CHEMBL4385653, “Design, synthesis, biological evaluation of benzoyl amide derivatives containing nitrogen heterocyclic ring as potential VEGFR-2 inhibitors” (Bioorg Med Chem, 2019)

How the values were obtained:
[1] = Cytotoxicity in HEK293T cells assessed as reduction in cell viability incubated for 48 hrs by MTT assay; assay type: cell-based, HEK-293T; settings: human
[2] = target: Vascular endothelial growth factor receptor 2 (Homo sapiens, UniProt P35968); test: Inhibition of VEGFR2 (unknown origin) incubated for 30 mins by enzyme immunoassay
HepG2 = test: Antiproliferative activity against human HepG2 cells assessed as inhibition of cell proliferation incubated for 48 hrs by MTT assay; assay type: functional, cell-based; settings: HepG2, 48 h
[3] = Inhibition of PDGFR (unknown origin) incubated for 30 mins by enzyme immunoassay; set-up: species or system Homo sapiens
[4] = target: Epidermal growth factor receptor (Homo sapiens, UniProt P00533); test: Inhibition of EGFR (unknown origin) incubated for 30 mins by enzyme immunoassay
HeLa = test: Antiproliferative activity against human HeLa cells assessed as inhibition of cell proliferation incubated for 48 hrs by MTT assay; assay type: functional, cell-based
MCF7 = test: Antiproliferative activity against human MCF7 cells assessed as inhibition of cell proliferation incubated for 48 hrs by MTT assay; assay type: functional, cell-based; settings: MCF7, 48 h
[5] = target: Fibroblast growth factor receptor 1 (Homo sapiens, UniProt P11362); test: Inhibition of bFGFR (unknown origin) incubated for 30 mins by enzyme immunoassay
A549 = test: Antiproliferative activity against human A549 cells assessed as inhibition of cell proliferation incubated for 48 hrs by MTT assay; assay type: functional, cell-based; settings: A549, 48 h

Fibroblast growth factor receptor 1, sequence (P11362 whole entry): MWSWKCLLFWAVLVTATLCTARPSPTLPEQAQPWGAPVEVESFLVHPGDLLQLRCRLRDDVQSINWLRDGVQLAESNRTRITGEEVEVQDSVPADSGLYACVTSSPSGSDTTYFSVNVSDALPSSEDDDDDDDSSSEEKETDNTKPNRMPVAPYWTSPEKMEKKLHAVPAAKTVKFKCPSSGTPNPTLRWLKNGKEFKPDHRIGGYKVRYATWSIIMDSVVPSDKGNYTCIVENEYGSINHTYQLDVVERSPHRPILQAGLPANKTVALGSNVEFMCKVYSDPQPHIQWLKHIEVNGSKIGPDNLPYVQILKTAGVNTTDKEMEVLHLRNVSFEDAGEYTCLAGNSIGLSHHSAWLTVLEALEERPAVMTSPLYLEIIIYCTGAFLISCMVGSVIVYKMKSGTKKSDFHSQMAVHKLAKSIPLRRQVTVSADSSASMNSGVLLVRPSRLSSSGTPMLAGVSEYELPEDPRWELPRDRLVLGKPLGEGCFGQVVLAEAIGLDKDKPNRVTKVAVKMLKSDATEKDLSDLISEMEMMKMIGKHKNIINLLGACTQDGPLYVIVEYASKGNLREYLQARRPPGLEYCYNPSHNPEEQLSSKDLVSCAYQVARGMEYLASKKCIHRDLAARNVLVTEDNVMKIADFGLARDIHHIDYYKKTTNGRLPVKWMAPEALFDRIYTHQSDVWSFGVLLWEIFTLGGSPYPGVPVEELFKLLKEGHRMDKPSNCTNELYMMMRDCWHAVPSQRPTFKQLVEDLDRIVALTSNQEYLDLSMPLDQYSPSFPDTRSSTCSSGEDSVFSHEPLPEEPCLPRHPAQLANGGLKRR
Vascular endothelial growth factor receptor 2, sequence (P35968 whole entry): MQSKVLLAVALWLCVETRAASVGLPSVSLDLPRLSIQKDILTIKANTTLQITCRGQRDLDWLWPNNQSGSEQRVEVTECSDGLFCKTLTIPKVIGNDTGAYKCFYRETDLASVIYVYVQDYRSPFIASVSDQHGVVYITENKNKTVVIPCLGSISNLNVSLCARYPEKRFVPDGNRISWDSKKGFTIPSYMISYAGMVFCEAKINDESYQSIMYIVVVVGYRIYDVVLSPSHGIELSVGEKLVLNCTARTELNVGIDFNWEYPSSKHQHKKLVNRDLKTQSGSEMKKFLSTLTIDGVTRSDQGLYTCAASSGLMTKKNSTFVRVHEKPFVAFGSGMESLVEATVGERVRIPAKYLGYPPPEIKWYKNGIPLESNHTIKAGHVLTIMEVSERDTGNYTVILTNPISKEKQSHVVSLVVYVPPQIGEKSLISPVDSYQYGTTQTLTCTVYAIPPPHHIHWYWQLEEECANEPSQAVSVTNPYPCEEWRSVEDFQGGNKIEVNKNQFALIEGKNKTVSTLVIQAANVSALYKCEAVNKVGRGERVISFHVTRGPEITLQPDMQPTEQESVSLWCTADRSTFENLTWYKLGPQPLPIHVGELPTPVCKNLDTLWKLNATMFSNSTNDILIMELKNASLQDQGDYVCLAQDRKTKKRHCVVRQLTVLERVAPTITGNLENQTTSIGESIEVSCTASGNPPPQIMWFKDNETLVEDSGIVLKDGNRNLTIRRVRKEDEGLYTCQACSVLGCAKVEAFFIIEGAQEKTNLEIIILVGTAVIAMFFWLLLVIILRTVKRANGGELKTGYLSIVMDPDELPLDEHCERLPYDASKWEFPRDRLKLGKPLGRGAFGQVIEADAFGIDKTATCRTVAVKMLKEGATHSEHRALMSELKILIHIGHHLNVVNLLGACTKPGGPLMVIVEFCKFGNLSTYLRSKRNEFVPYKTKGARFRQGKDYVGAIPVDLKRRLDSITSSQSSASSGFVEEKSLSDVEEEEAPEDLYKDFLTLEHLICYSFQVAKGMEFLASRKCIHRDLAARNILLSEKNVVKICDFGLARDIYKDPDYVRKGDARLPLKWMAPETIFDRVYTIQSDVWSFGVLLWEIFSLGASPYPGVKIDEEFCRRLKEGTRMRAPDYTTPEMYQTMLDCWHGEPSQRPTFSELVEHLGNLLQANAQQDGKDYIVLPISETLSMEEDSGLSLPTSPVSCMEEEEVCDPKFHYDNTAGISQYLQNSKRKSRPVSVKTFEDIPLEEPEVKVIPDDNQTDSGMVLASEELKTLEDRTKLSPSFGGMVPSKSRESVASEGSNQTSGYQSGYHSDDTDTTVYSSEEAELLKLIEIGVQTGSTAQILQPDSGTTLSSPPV
Epidermal growth factor receptor, sequence (P00533 whole entry): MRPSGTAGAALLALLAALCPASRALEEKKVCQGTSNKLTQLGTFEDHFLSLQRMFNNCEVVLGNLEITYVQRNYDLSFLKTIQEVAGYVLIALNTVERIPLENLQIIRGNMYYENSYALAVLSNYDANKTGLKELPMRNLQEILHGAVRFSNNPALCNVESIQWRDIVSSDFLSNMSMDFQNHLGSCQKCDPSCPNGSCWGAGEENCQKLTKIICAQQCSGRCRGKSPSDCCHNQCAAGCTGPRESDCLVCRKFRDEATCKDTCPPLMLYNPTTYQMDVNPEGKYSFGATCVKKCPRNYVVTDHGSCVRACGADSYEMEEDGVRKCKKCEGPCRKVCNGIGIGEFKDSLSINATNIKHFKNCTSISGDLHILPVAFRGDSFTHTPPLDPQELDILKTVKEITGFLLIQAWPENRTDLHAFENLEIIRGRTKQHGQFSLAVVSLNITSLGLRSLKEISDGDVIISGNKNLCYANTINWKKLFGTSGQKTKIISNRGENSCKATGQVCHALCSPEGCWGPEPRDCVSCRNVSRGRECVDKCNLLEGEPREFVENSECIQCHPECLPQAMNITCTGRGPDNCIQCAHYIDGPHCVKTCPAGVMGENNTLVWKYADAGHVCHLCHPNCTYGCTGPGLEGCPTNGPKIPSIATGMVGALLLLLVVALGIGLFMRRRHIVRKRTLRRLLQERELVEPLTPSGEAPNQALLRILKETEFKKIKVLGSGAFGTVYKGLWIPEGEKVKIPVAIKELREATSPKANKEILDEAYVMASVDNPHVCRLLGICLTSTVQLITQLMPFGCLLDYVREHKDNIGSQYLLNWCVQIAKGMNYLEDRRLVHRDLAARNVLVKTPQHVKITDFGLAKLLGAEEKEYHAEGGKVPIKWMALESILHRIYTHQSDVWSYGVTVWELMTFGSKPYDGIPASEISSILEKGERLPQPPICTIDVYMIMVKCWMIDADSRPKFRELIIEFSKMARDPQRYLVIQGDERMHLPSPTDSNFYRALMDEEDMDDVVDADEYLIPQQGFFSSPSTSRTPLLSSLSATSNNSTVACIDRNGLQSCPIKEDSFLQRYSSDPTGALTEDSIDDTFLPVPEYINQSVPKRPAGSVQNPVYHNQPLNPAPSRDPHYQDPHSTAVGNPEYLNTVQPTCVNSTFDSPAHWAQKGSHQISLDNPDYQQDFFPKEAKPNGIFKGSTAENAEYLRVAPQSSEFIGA

IC50 [2] [µM]	IC50 (HepG2) [µM]	IC50 [3] [µM]	IC50 [4] [µM]	IC50 (HeLa) [µM]	IC50 (MCF7) [µM]	IC50 [5] [µM]	IC50 (A549) [µM]	Compound	CC50 at 48 h [1] [µM]
–	–	–	–	–	–	–	–	COc1cc2c(Nc3ccc(Br)cc3F)ncnc2cc1OCC1CCN(C)CC1 [VANDETANIB]	172
16.2	64.2	39.5	24.1	66.2	28.4	47.5	> 100	COc1cccc(-n2cc(NC(=O)c3ccc(NS(=O)(=O)c4ccccc4)cc3)cn2)c1	–
10.1	21.5	34.6	25.4	37.1	17.1	35.9	87.1	O=C(Nc1cnn(-c2ccccc2)c1)c1ccc(NS(=O)(=O)c2ccccc2)cc1	–
10.4	35.7	38.5	27	42.2	18.7	37	76.8	COc1ccc(-n2cc(NC(=O)c3cccc(NS(=O)(=O)c4ccccc4)c3)cn2)cc1	–
2.39	8.54	17.6	10.6	5.41	3.13	18.5	19.3	O=C(Nc1cnn(-c2ccccc2)c1)c1cccc(NS(=O)(=O)c2ccc(Cl)cc2)c1	120
2.88	9.72	15.8	12.4	8.01	3.99	16.2	22	Cc1ccc(-n2cc(NC(=O)c3ccc(NS(=O)(=O)c4ccc(Cl)cc4)cc3)cn2)cc1	138
9.22	25	27.8	22.9	26.2	16.7	33.5	81.1	COc1cccc(-n2cc(NC(=O)c3cccc(NS(=O)(=O)c4ccccc4)c3)cn2)c1	–
0.58	6.05	15.7	9.57	3.12	1.69	16.2	18.9	Cc1ccc(-n2cc(NC(=O)c3cccc(NS(=O)(=O)c4ccccc4)c3)cn2)cc1	93.8
3.71	15.2	19.4	–	18.4	5.25	21.6	33.9	O=C(Nc1cnn(-c2ccccc2)c1)c1ccc(NS(=O)(=O)c2ccc(Cl)cc2)cc1	125
14.5	57.3	36.8	26.1	47.2	25.6	45.3	85.8	COc1ccc(-n2cc(NC(=O)c3ccc(NS(=O)(=O)c4ccccc4)cc3)cn2)cc1	–
